# Laboratory results published in patent US10172362B2, “Biofilms, components and methods of use to reduce biofouling and contamination” (THE PENN STATE RESEARCH FOUNDATION, priority 2015, dated 2019).
# B1: BdcA E50Q variant (protein, UniProt P39333 1-237, looked up, variant E50Q)
# Cyclic-di-GMP-binding biofilm …: MGAFTGKTVLILGGSRGIGAAIVRRFVTDGANVRFTYAGSKDAAKRLAQQTGATAVFTDSADRDAVIDVVRKSGALDILVVNAGIGVFGEALELNADDIDRLFKINIHAPYHASVEAARQMPEGGRILIIGSVNGDRMPVAGMAAYAASKSALQGMARGLARDFGPRGITINVVQPGPIDTDANPANGPMRDMLHSLMAIKRHGQPEEVAGMVAWLAGPEASFVTGAMHTIDGAFGA
# Key:
# [1] = Rejection experiments with NF90 membranes (no biofilm); format: physicochemical; conditions: 1 mM and 10 mM feed in 5 mM NaCl (pH 9.0), 30 min
# Protocol: Beneficial Biofilm Degrades Epichlorohydrin. Epichlorohydrin is an emerging water contaminant for which treatment techniques are not well studied. […] Measurements were taken 30 min after permeation began. Feed was in 5 mM NaCl (pH 9.0). Furthermore, when grown on the NF90 membrane, the beneficial biofilm that produces EH degraded epichlorohydrin by more than 39±4% in single pass batch filtration (See FIGS. 29 and 30). […] Biofilms grown for 24 h on NF90 membranes were challenged with 10 mM epichlorohydrin in 5 mM NaCl feed solution (pH 9). The left and adjacent right bars indicate the molar removal of epichlorohydrin (%) at 20 min and 30 min respectively, after starting filtration. The removal of epichlorohydrin by adsorption to cellular biomass was estimated using a dead cell control experiment. EH− is E. coli TG1/pBdcAE50Q-lasI-lasR/pBNos and EH+ is E. coli TG1/pBdcAE50Q-lasI-lasR/pBNos-echA. Dead cells were obtained by autoclaving overnight cultures of the EH+ strain. The error bars are standard deviation for three independent colonies.
# biofilm dispersal = conditions: cited from earlier work
Molecule,passage through NF90 membrane [1],higher levels of biofilm dispersal (biofilm dispersal)
ClCC1CO1 (centres unmarked) [Epichlorohydrin],passes through the membrane used,–
B1,–,six-fold higher
